Patent publication US10555987B2, “GHRH agonists for the treatment of ischemic disorders” (UNIVERSITY OF MIAMI, priority 2012, dated 2020)
Non-standard residues stand in square brackets, D forms with d. Residues, ends and D or L forms follow the SMILES beside them. *: point of attachment. Phe(F5) = N[C@@H](Cc1c(F)c(F)c(F)c(F)c1F)C(=O)O; Desaminotyrosyl = O=C(CCc1ccc(O)cc1)*; NMeY = CN[C@@H](Cc1ccc(O)cc1)C(=O)O; Agmatine = N=C(N)NCCCCN*; Nle = CCCC[C@H](N)C(=O)O; Orn = NCCC[C@H](N)C(=O)O; Abu = CC[C@H](N)C(=O)O; GABA = NCCCC(=O)O

How the values were obtained:
[1] = test system: myocardial infarction (Fisher-344 rats); assay: Morphometric analysis of infarct size, rat MI model (Example 13); assay type: in vivo; details: 50 μg/kg s.c. twice daily for 4 weeks; mean ± SEM
Protocol: Myocardial infarction (MI) was induced by permanent ligation of the left coronary artery in female 6-month-old Fisher-344 rats. Animals were randomly assigned to receive placebo (DMSO+propylene glycol) or one of the GHRH-agonists (JI-38, MR-356/P-20356, MR-409/P-27409, all 50 μg/kg), starting 4 weeks post-MI. All treatment was given subcutaneously twice daily for 4 weeks.
Rat hearts were processed using routine histological procedures. Samples were fixed in formalin.
Paraffin sections were deparaffinized and rehydrated by immersion in xylene followed by a graded series of ethanol. Antigen retrieval was performed by a heat-induced method with citrate buffer (Dako, Carpinteria, Calif.). After blocking with 10% normal donkey serum, sections were incubated with a primary antibody at 37° C. for 1 hour, followed by application of secondary antibody. Omission of the primary antibodies on parallel sections was used as negative control. Nuclei were counterstained with DAPI (Invitrogen, Carlsbad, Calif.). The total numbers of positively-stained cells (c-kit, CD45, phospho-histone H3 [pH3]) were quantified per slide to calculate the number of cells per section on each sample. Morphometric analysis was performed using Adobe Photoshop CS3 (San Jose, Calif.).

[2] = test system: GH release; assay: In vivo endocrine activity, GH release after intravenous administration (Table 8); details: rat; for Stimulation of growth hormone levels after intravenous administration (in words): i.v.; for GH releasing potency in vivo relative to JI-38 (=1): i.v. injection
[3] = test system: GH release; assay: In vivo endocrine activity, GH release after subcutaneous administration (Table 9); details: rat; for Stimulation of growth hormone levels after subcutaneous administration (in words): s.c.; for GH releasing potency relative to JI-38 (=1): subcutaneous (s.c.) injection
Protocol: Subcutaneous Administration. Adult male rats were used and anesthetized with pentobarbital (6 mg/100 g, b.w.), by i.p. injection. […] Blood samples were taken from the jugular vein 5, 15 and/or 30 minutes after the injection. The blood samples were centrifuged, plasma was removed and the GH level was measured byELISA. The results are summarized in terms of potency in Table 9.

[4] = test system: myocardial infarction (Fisher-344 rats); assay: Hemodynamic analysis (pressure-volume loops), body and heart weight after MI, compared to JI-38 (Example 15, Table 16); assay type: in vivo, rat; parameters: key to ESP (End-Systolic Pressure) / EDP (End-Diastolic Pressure) / ESV (End-Systolic Volume) / PRSW (Preload Recruitable Stroke Work) / Ees (End-systolic Elastance) / dP/dt max (peak rate of the pressure rise) / dP/dt max_EDV / dP/dt min / TAU (relaxation time constant calculated by Weiss method) / SV (Stroke Volume) / CO (Cardiac Output) / SW (Stroke Work) / EF / Ea/Ees / Ea (arterial Elastance): ↓: downward arrow denotes lower than JI-38; ↑: upward arrow denotes greater than JI-38; =denotes same as JI-38; ⬇⬇: double arrow denotes greater effect; ⬆⬆: double arrow denotes greater effect; details: for CO (Cardiac Output) / EDP (End-Diastolic Pressure) / EF / ESP (End-Systolic Pressure) / ESV (End-Systolic Volume) / Ea (arterial Elastance) / Ea/Ees / Ees (End-systolic Elastance) / PRSW (Preload Recruitable Stroke Work) / SV (Stroke Volume) / SW (Stroke Work) / TAU (relaxation time constant calculated by Weiss method) / dP/dt max (peak rate of the pressure rise) / dP/dt max_EDV / dP/dt min: rat MI model, s.c. twice daily, pressure-volume loops, expressed in comparison to JI-38
Method in brief: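 Female 6-month-old Fisher-344 rats after permanent left coronary ligation received GHRH agonists subcutaneously twice daily from 2 h post-surgery (n=10/group). Under ketamine/xylazine/acepromazine anesthesia, LV pressure-volume loops were recorded via carotid micromanometer catheter, calibrated by hypertonic saline bolus and cuvette method; echocardiography also serial.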

SMILES	MI size (%) [1]	Stimulation of growth hormone levels after intravenous administration (in words) [2]	Stimulation of growth hormone levels after subcutaneous administration (in words) [3]	GH releasing potency relative to JI-38 (=1) ([3]; 15 min after)	GH releasing potency relative to JI-38 (=1) ([3]; 30 min after)	CO (Cardiac Output) [4]	EDP (End-Diastolic Pressure) [4]	EF [4]	ESP (End-Systolic Pressure) [4]	ESV (End-Systolic Volume) [4]	Ea (arterial Elastance) [4]	Ea/Ees [4]	Ees (End-systolic Elastance) [4]	PRSW (Preload Recruitable Stroke Work) [4]	SV (Stroke Volume) [4]	SW (Stroke Work) [4]	TAU (relaxation time constant calculated by Weiss method) [4]	dP/dt max (peak rate of the pressure rise) [4]	dP/dt max_EDV [4]	dP/dt min [4]	also measured
CCCC[C@H](NC(=O)[C@@H](NC(=O)[C@H](CC(=O)O)NC(=O)[C@H](CCC(N)=O)NC(=O)[C@H](CC(C)C)NC(=O)[C@H](CC(C)C)NC(=O)[C@H](CCCN)NC(=O)[C@H](CCCNC(=N)N)NC(=O)[C@H](C)NC(=O)[C@H](CO)NC(=O)[C@H](CC(C)C)NC(=O)[C@H](CCC(N)=O)NC(=O)[C@H](CC)NC(=O)[C@H](CC(C)C)NC(=O)[C@@H](NC(=O)[C@H](CCCN)NC(=O)[C@H](CCCNC(=N)N)NC(=O)[C@H](Cc1ccc(O)cc1)NC(=O)[C@H](CO)NC(=O)[C@H](CCC(N)=O)NC(=O)[C@@H](NC(=O)[C@H](Cc1ccccc1)NC(=O)[C@@H](NC(=O)[C@H](C)NC(=O)[C@H](CC(=O)O)NC(=O)[C@H](C)NC(=O)CCc1ccc(O)cc1)[C@@H](C)CC)[C@@H](C)O)C(C)C)[C@@H](C)CC)C(=O)N[C@@H](CC(=O)O)C(=O)NCCCCNC(=N)N [JI-38, [Dat^1, Gln^8, Orn^12,21, Abu^15, Nle^27, Asp^28, Agm^29]hGHRH(1-29)NH2, reference compound] (Desaminotyrosyl-ADAIFTQSYR[Orn]VL[Abu]QLSAR[Orn]LLQDI[Nle]D-Agmatine)	42 ± 1.3 %																				
CCCC[C@H](NC(=O)[C@@H](NC(=O)[C@H](CC(=O)O)NC(=O)[C@H](CCC(N)=O)NC(=O)[C@H](CC(C)C)NC(=O)[C@H](CC(C)C)NC(=O)[C@H](CCCN)NC(=O)[C@H](CCCNC(=N)N)NC(=O)[C@H](C)NC(=O)[C@H](CO)NC(=O)[C@H](CC(C)C)NC(=O)[C@H](CCC(N)=O)NC(=O)[C@H](CC)NC(=O)[C@H](CC(C)C)NC(=O)[C@@H](NC(=O)[C@H](CCCN)NC(=O)[C@H](CCCNC(=N)N)NC(=O)[C@H](Cc1ccc(O)cc1)NC(=O)[C@H](CO)NC(=O)[C@H](CC(N)=O)NC(=O)[C@@H](NC(=O)[C@H](Cc1c(F)c(F)c(F)c(F)c1F)NC(=O)[C@@H](NC(=O)[C@H](C)NC(=O)[C@H](CC(=O)O)NC(=O)[C@@H](C)NC(=O)CCc1ccc(O)cc1)[C@@H](C)CC)[C@@H](C)O)C(C)C)[C@@H](C)CC)C(=O)N[C@@H](CO)C(=O)N[C@@H](CCCNC(=N)N)C(=O)NCCCC(N)=O [Peptide P-25502, [Dat^1, D-Ala^2, Fpa5^6, Orn^12, Abu^15, Orn^21, Nle^27, Gab^30]hGHRH(1-30)NH2] (Desaminotyrosyl-[dA]DAI[Phe(F5)]TNSYR[Orn]VL[Abu]QLSAR[Orn]LLQDI[Nle]SR[GABA]-NH2)		most potent	stimulated greater growth hormone levels than hGHRH or JI-38	1.10	0.94	↓	=	↓	=	=	↑	=	↑	=	↓	=	↓	=	=	=	GH releasing potency in vivo relative to JI-38 (=1) ([2]; 5 min after): 6.76; GH releasing potency in vivo relative to JI-38 (=1) ([2]; 15 min after): 5.40; GH releasing potency in vivo relative to JI-38 (=1) ([2]; 30 min after): 5.83
CCCC[C@H](NC(=O)[C@@H](NC(=O)[C@H](CC(=O)O)NC(=O)[C@H](CCC(N)=O)NC(=O)[C@H](CC(C)C)NC(=O)[C@H](CC(C)C)NC(=O)[C@H](CCCN)NC(=O)[C@H](CCCNC(=N)N)NC(=O)[C@H](C)NC(=O)[C@H](CO)NC(=O)[C@H](CC(C)C)NC(=O)[C@H](CCC(N)=O)NC(=O)[C@H](CC)NC(=O)[C@H](CC(C)C)NC(=O)[C@@H](NC(=O)[C@H](CCCN)NC(=O)[C@H](CCCNC(=N)N)NC(=O)[C@H](Cc1ccc(O)cc1)NC(=O)[C@H](CO)NC(=O)[C@H](CCC(N)=O)NC(=O)[C@@H](NC(=O)[C@H](Cc1ccccc1)NC(=O)[C@@H](NC(=O)[C@H](C)NC(=O)[C@H](CC(=O)O)NC(=O)[C@@H](C)NC(=O)[C@H](Cc1ccc(O)cc1)NC)[C@@H](C)CC)[C@@H](C)O)C(C)C)[C@@H](C)CC)C(=O)N[C@@H](CC(=O)O)C(=O)N[C@@H](CCCNC(=N)N)C(=O)NC [Peptide P-27403, [N—Me-Tyr^1, D-Ala^2, Gln^8, Orn^12, Abu^15, Orn^21, Nle^27, Asp^28]hGHRH(1-29)NH—CH3] (H-[NMeY][dA]DAIFTQSYR[Orn]VL[Abu]QLSAR[Orn]LLQDI[Nle]DR-NHMe)		most potent	stimulated greater growth hormone levels than hGHRH or JI-38	3.60	2.57	↑	↑	=	=	↑	=	↓	=	=	=	=	=	=	=	=	GH releasing potency in vivo relative to JI-38 (=1) ([2]; 15 min after): 5.01; GH releasing potency in vivo relative to JI-38 (=1) ([2]; 30 min after): 4.01
CCCC[C@H](NC(=O)[C@@H](NC(=O)[C@H](CC(=O)O)NC(=O)[C@H](CCC(N)=O)NC(=O)[C@H](CC(C)C)NC(=O)[C@H](CC(C)C)NC(=O)[C@H](CCCN)NC(=O)[C@H](CCCNC(=N)N)NC(=O)[C@H](C)NC(=O)[C@H](CO)NC(=O)[C@H](CC(C)C)NC(=O)[C@H](CCC(N)=O)NC(=O)[C@H](CC)NC(=O)[C@H](CC(C)C)NC(=O)[C@@H](NC(=O)[C@H](CCCN)NC(=O)[C@H](CCCNC(=N)N)NC(=O)[C@H](Cc1ccc(O)cc1)NC(=O)[C@H](CO)NC(=O)[C@H](CC(N)=O)NC(=O)[C@@H](NC(=O)[C@H](Cc1ccccc1)NC(=O)[C@@H](NC(=O)[C@H](C)NC(=O)[C@H](CC(=O)O)NC(=O)[C@@H](C)NC(=O)[C@H](Cc1ccc(O)cc1)NC)[C@@H](C)CC)[C@@H](C)O)C(C)C)[C@@H](C)CC)C(=O)N[C@@H](CC(=O)O)C(=O)N[C@@H](CCCNC(=N)N)C(=O)NC [Peptide P-27409, [N—Me-Tyr^1, D-Ala^2, Orn^12, Abu^15, Orn^21, Nle^27, Asp^28]hGHRH(1-29)NH—CH3] (H-[NMeY][dA]DAIFTNSYR[Orn]VL[Abu]QLSAR[Orn]LLQDI[Nle]DR-NHMe)	42 ± 1.9 %		stimulated greater growth hormone levels than hGHRH or JI-38	1.47	1.31	⬆⬆	↑	⬆⬆	↑	=	=	↓	⬆⬆	⬆⬆	=	=	=	⬆⬆	=	=	PRSW, index of contractility ([4]; after MI): markedly increased
